# From US20250179066A1, “ZWITTERIONIC ANTIBACTERIAL COMPOUNDS” (Hoffmann-La Roche Inc., priority 2022, published 2025)
# Where a name gives a salt, the structure may show the parent alone.
# Test system: Acinetobacter baumannii ATCC17961
# Assay: Antimicrobial susceptibility testing: 90% growth inhibitory concentration (IC90) determination
# Assay type: cell-based
# Conditions: Acinetobacter baumannii, ATCC17961, 16 h, 90% growth inhibitory concentration against Acinetobacter baumannii ATCC17961, Iso-Sensitest broth, OD 600 nm over 16 h; read-out: ATCC 17961 IC90
# Procedure, shortened: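 OD600 monitored each minute over 16 h at 35±2° C for bacteria (~5×10^5 CFU/mL final) in Iso-Sensitest medium with 10-point twofold compound series (e.g. 10-0.0195 μM final). Concentration giving 90% growth inhibition in log phase reported as IC90.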
row,SMILES,IC90
1,"Cn1c(-c2cn(-c3ccc(N)cc3F)nc2C(F)(F)F)cnc1C(=O)Nc1ccc(C(=O)N2CCN(C(=O)CCC[N+](CCCN)(CCCN)CC(=O)O)CC2)c(Cl)c1 [Example 183, [4-[4-[4-[[5-[1-(4-amino-2-fluoro-phenyl)-3-(trifluoromethyl)pyrazol-4-yl]-1-methyl-imidazole-2-carbonyl]amino]-2-chloro-benzoyl]piperazin-1-yl]-4-oxo-butyl]-bis(3-aminopropyl)-(carboxymethyl)ammonium;formate]",108 nM
2,"COCCNc1ccc(-n2cc(-c3cnc(C(=O)Nc4ccc(C(=O)N5CCN(C(=O)[C@H]6CC[N@+](CC(=O)O)(CC7CNC7)CC6)CC5)c(Cl)c4)n3C)c(C(F)(F)F)n2)c(F)c1 [Example 185, cis-2-[1-(azetidin-3-ylmethyl)-4-[4-[2-chloro-4-[[5-[1-[2-fluoro-4-(2-methoxyethylamino)phenyl]-3-(trifluoromethyl)pyrazol-4-yl]-1-methyl-imidazole-2-carbonyl]amino]benzoyl]piperazine-1-carbonyl]piperidin-1-ium-1-yl]acetic acid. 1:1 2,2,2-trifluoroacetate]",196 nM
3,"Cn1c(-c2cn(-c3ccc(NCCCN)cc3F)nc2C(F)(F)F)cnc1C(=O)Nc1ccc(C(=O)N2CCN(C(=O)[C@H]3CC[N@+](CC(=O)O)(CC4CNC4)CC3)CC2)c(Cl)c1 [Example 186, cis-2-[4-[4-[4-[[5-[1-[4-(3-aminopropylamino)-2-fluoro-phenyl]-3-(trifluoromethyl)pyrazol-4-yl]-1-methyl-imidazole-2-carbonyl]amino]-2-chloro-benzoyl]piperazine-1-carbonyl]-1-(azetidin-3-ylmethyl)piperidin-1-ium-1-yl]acetic Acid.1:1 formate]",160 nM
4,"CN(C)CC[N@+]1(CC(=O)O)CC[C@@H](C(=O)N2CCN(C(=O)c3ccc(NC(=O)c4ncc(-c5cn(-c6ccc(N)cc6F)nc5C(F)(F)F)n4C)cc3Cl)CC2)CC1 [Example 188, cis-2-[4-[4-[4-[[5-[1-(4-amino-2-fluoro-phenyl)-3-(trifluoromethyl)pyrazol-4-yl]-1-methyl-imidazole-2-carbonyl]amino]-2-chloro-benzoyl]piperazine-1-carbonyl]-1-[2-(dimethylamino)ethyl]piperidin-1-ium-1-yl]acetic acid;2,2,2-trifluoroacetate]",540 nM
5,"Cn1c(-c2cn(-c3ccc4c(ccn4CCN)n3)nc2C(F)(F)F)cnc1C(=O)Nc1ccc(C(=O)N2CCN(C(=O)[C@H]3CC[N@+](CC(=O)O)(CC4CNC4)CC3)CC2)c(Cl)c1 [Example 190, cis-2-[4-[4-[4-[[5-[1-[1-(2-aminoethyl)pyrrolo[3,2-b]pyridin-5-yl]-3-(trifluoromethyl)pyrazol-4-yl]-1-methyl-imidazole-2-carbonyl]amino]-2-chloro-benzoyl]piperazine-1-carbonyl]-1-(azetidin-3-ylmethyl)piperidin-1-ium-1-yl]acetic acid. 1:1 hydrogen chloride. 1:1 chloride]",199 nM
6,"Cn1c(-c2cn(-c3cc4cc(CO)[nH]c4cn3)nc2C(F)(F)F)cnc1C(=O)Nc1ccc(C(=O)N2CCN(C(=O)[C@H]3CC[N@+](CC(=O)O)(CC4CNC4)CC3)CC2)c(Cl)c1 [Example 191, cis-2-[1-(azetidin-3-ylmethyl)-4-[4-[2-chloro-4-[[1-methyl-5-[1-(2-methylol-1H-pyrrolo[2,3-c]pyridin-5-yl)-3-(trifluoromethyl)pyrazol-4-yl]imidazole-2-carbonyl]amino]benzoyl]piperazine-1-carbonyl]piperidin-1-ium-1-yl]acetic acid. 1:1 2,2,2-trifluoroacetic acid]",315 nM
7,"Cn1c(-c2cn(-c3cc4[nH]cc(CCO)c4cn3)nc2C(F)(F)F)cnc1C(=O)Nc1ccc(C(=O)N2CCN(C(=O)[C@H]3CC[N@+](CC(=O)O)(CC4CNC4)CC3)CC2)c(Cl)c1 [Example 194, cis-2-[1-(azetidin-3-ylmethyl)-4-[4-[2-chloro-4-[[5-[1-[3-(2-hydroxyethyl)-1H-pyrrolo[3,2-c]pyridin-6-yl]-3-(trifluoromethyl)pyrazol-4-yl]-1-methyl-imidazole-2-carbonyl]amino]benzoyl]piperazine-1-carbonyl]piperidin-1-ium-1-yl]acetic acid. 1:1 2,2,2-trifluoroacetate]",168 nM
8,"Cn1c(-c2cn(-c3ccc4c(ccn4CC#N)n3)nc2C(F)(F)F)cnc1C(=O)Nc1ccc(C(=O)N2CCN(C(=O)[C@H]3CC[N@+](CC(=O)O)(CC4CNC4)CC3)CC2)c(Cl)c1 [Example 197, cis-2-[1-(azetidin-3-ylmethyl)-4-[4-[2-chloro-4-[[5-[1-[1-(cyanomethyl)pyrrolo[3,2-b]pyridin-5-yl]-3-(trifluoromethyl)pyrazol-4-yl]-1-methyl-imidazole-2-carbonyl]amino]benzoyl]piperazine-1-carbonyl]piperidin-1-ium-1-yl]acetic acid. 1:1 2,2,2-trifluoroacetate]",171 nM

# More lines, now with the values ahead:
row,IC90,SMILES
1,64.2 nM,"Cn1c(-c2cn(-c3ccc4[nH]c(CN)cc4n3)nc2C(F)(F)F)cnc1C(=O)Nc1ccc(C(=O)N2CCN(C(=O)[C@H]3CC[N@+](CC(=O)O)(CC4CNC4)CC3)CC2)c(Cl)c1 [Example 184, cis-2-[4-[4-[4-[[5-[1-[2-(aminomethyl)-1H-pyrrolo[3,2-b]pyridin-5-yl]-3-(trifluoromethyl)pyrazol-4-yl]-1-methyl-imidazole-2-carbonyl]amino]-2-chloro-benzoyl]piperazine-1-carbonyl]-1-(azetidin-3-ylmethyl)piperidin-1-ium-1-yl]acetic acid;formate]"
2,745 nM,"CN(C)CC[N@+]1(CC(=O)O)CC[C@H](C(=O)N2CCN(C(=O)c3ccc(NC(=O)c4ncc(-c5cn(-c6ccc(N)cc6F)nc5C(F)(F)F)n4C)cc3Cl)CC2)CC1 [Example 187, trans-2-[4-[4-[4-[[5-[1-(4-amino-2-fluoro-phenyl)-3-(trifluoromethyl)pyrazol-4-yl]-1-methyl-imidazole-2-carbonyl]amino]-2-chloro-benzoyl]piperazine-1-carbonyl]-1-[2-(dimethylamino)ethyl]piperidin-1-ium-1-yl]acetic acid;2,2,2-trifluoroacetate]"
3,53.2 nM,"Cn1c(-c2cn(-c3cc4[nH]c(CN)cc4cn3)nc2C(F)(F)F)cnc1C(=O)Nc1ccc(C(=O)N2CCN(C(=O)[C@H]3CC[N@+](CC(=O)O)(CC4CNC4)CC3)CC2)c(Cl)c1 [Example 189, cis-2-[4-[4-[4-[[5-[1-[2-(aminomethyl)-1H-pyrrolo[3,2-c]pyridin-6-yl]-3-(trifluoromethyl)pyrazol-4-yl]-1-methyl-imidazole-2-carbonyl]amino]-2-chloro-benzoyl]piperazine-1-carbonyl]-1-(azetidin-3-ylmethyl)piperidin-1-ium-1-yl]acetic acid;formic acid;formate]"
4,265 nM,"Cn1c(-c2cn(-c3cccc(N)n3)nc2C(F)(F)F)cnc1C(=O)Nc1ccc(C(=O)N2CCN(C(=O)[C@H]3CC[N@+](CC(=O)O)(CC4CNC4)CC3)CC2)c(Cl)c1 [Example 192, cis-2-[4-[4-[4-[[5-[1-(6-amino-2-pyridyl)-3-(trifluoromethyl)pyrazol-4-yl]-1-methyl-imidazole-2-carbonyl]amino]-2-chloro-benzoyl]piperazine-1-carbonyl]-1-(azetidin-3-ylmethyl)piperidin-1-ium-1-yl]acetic acid. 1:1 2,2,2-trifluoroacetate]"
5,371 nM,"Cn1c(-c2cn(-c3ccc(N)cc3F)nc2C(F)(F)F)cnc1C(=O)Nc1ccc(C(=O)N2CCN(C(=O)C3CC[N+](C)(CC(=O)O)CC3)CC2)c(Cl)c1 (stereo not shown) [Example 193, 2-[4-[4-[4-[[5-[1-(4-amino-2-fluoro-phenyl)-3-(trifluoromethyl)pyrazol-4-yl]-1-methyl-imidazole-2-carbonyl]amino]-2-chloro-benzoyl]piperazine-1-carbonyl]-1-methyl-piperidin-1-ium-1-yl]acetic acid;iodide]"
6,330 nM,"Cn1c(-c2cn(-c3ccc(N)cc3F)nc2C(F)(F)F)cnc1C(=O)Nc1ccc(C(=O)N2CCN(C(=O)CCC[N+](C)(CC(=O)[O-])CC3CNC3)CC2)c(Cl)c1 (stereo not shown) [Example 195, 2-[[4-[4-[4-[[5-[1-(4-amino-2-fluoro-phenyl)-3-(trifluoromethyl)pyrazol-4-yl]-1-methyl-imidazole-2-carbonyl]amino]-2-chloro-benzoyl]piperazin-1-yl]-4-oxo-butyl]-(azetidin-3-ylmethyl)-methyl-ammonio]acetate]"
7,185 nM,"Cn1c(-c2cn(-c3ccc(N(CCN)CCN)cn3)nc2C(F)(F)F)cnc1C(=O)Nc1ccc(C(=O)N2CCN(C(=O)[C@H]3CC[N@+](CC(=O)O)(CC4CNC4)CC3)CC2)c(Cl)c1 [Example 196, cis-2-[1-(azetidin-3-ylmethyl)-4-[4-[4-[[5-[1-[5-[bis(2-aminoethyl)amino]-2-pyridyl]-3-(trifluoromethyl)pyrazol-4-yl]-1-methyl-imidazole-2-carbonyl]amino]-2-chloro-benzoyl]piperazine-1-carbonyl]piperidin-1-ium-1-yl]acetic acid;formic acid;formate]"
8,370 nM,"Cn1c(-c2cn(-c3ccc4c(ccn4CCO)n3)nc2C(F)(F)F)cnc1C(=O)Nc1ccc(C(=O)N2CCN(C(=O)[C@H]3CC[N@+](CC(=O)O)(CC4CNC4)CC3)CC2)c(Cl)c1 [Example 198, cis-2-[1-(azetidin-3-ylmethyl)-4-[4-[2-chloro-4-[[5-[1-[1-(2-hydroxyethyl)pyrrolo[3,2-b]pyridin-5-yl]-3-(trifluoromethyl)pyrazol-4-yl]-1-methyl-imidazole-2-carbonyl]amino]benzoyl]piperazine-1-carbonyl]piperidin-1-ium-1-yl]acetic acid. 1:1 2,2,2-trifluoroacetate]"
